According to PubChem BioAssay AID1963862 (Molecular Pharmacology Branch, DTP, NCI, 2024):

Test system: KRAS patient-derived spheroids with HUVEC/MSC, viability
Assay: Anticancer human tumor 941728-121-R-J1-PDC patient-derived lung adenocarcinoma cell line growth inhibition [KRAS2]
Conditions: for viability, T/C: stronger effect = lower value
From the text: Multicellular complex tumor spheroid response to RAS pathway inhibitors in combination with a targeted agents in patient-derived cell lines with oncogenic KRAS variants from multiple cancer types
A high-throughput screen of multi-cell type tumor spheroids was designed to identify active combinations of targeted small molecules and KRAS pathway inhibitors. Complex spheroids include a stromal component modeled by human endothelial cells (HUVEC) and fibroblasts modeled by human mesenchymal stem cells (MSCs). The concentration ranges selected for each drug and investigational agent were based upon clinically achievable concentrations if the clinical Cmax of the agent was known.
Compounds. The drugs and investigational agents: BI-3406 (NSC825286), BAY-293 (NSC824723), batoprotafib (TNO155; NSC825523), sotorasib (AMG 510; NSC818433), MRTX1257 (NSC819558), elimusertib (BAY 1895344; NSC800525), molibresib (GSK525762; NSC774829), temuterkib (LY3214996; NSC803410), venetoclax (NSC766270), alisertib (NSC759677), olaparib (NSC753686), talazoparib (NSC767125), erdafitinib (NSC781556), ipatasertib (NSC767898), cabozantinib (NSC761068), nintedanib (NSC756659), abemaciclib (NSC768073), docetaxel (NSC628503), trametinib (NSC758246), and sapanisertib (NSC764658) were obtained from the National Cancer Institute (NCI) Developmental Therapeutics Program Chemical Repository. The FDA-approved anticancer drug set is available from the Developmental Therapeutics Program. […] The stock solutions were prepared in dimethyl sulfoxide (DMSO, Sigma-Aldrich, St. Louis, MO, cat. D2650) at 800-fold the tested concentration and stored at -70 degrees C prior to their use. All drugs and investigational agents were tested over a range starting from a high concentration at or near the clinical Cmax and decreasing in half-log increments. If the clinical Cmax for an agent had not been determined, the highest concentration tested was 10 microM.
Cell Culture. All cells were maintained in an incubator at 37 degrees C and 5% CO2 with 95% humidity. The PDC lines were cultured according to standard operating procedures established by the NCI PDMR (https://pdmr.cancer.gov/sops/default.htm). Briefly, all PDCs were thawed and cultured in Matrigel-coated flasks prepared with a working solution of 1X Ham's F-12 nutrient mix, without supplementation (Invitrogen, Waltham, MA, cat. 11765054), 100 U/mL penicillin-streptomycin (Invitrogen, cat. 15140122), and 2.5% Matrigel (Corning Inc., Corning, NY, cat. 354248) for the first three passages. All PDCs were cultured in complete DMEM/F-12 media containing advanced DMEM/F-12 (Invitrogen, cat. 12634028), 4.9% defined fetal bovine serum, heat inactivated (HyClone Laboratories Inc., Logan, UT, cat. SH30070.03HI), 389 ng/mL hydrocortisone (Sigma-Aldrich, cat. H4001), 9.7 ng/mL human EGF recombinant protein (Invitrogen, cat. PHG0313), 23.4 microg/mL adenine (Sigma-Aldrich, cat. A2786), 97.3 U/mL penicillin-streptomycin (Invitrogen, cat. 15140122), 1.9 mM L-glutamine (Invitrogen, cat. 25030081), and 9.7 microM Y-27632 dihydrochloride (Tocris Bioscience, Bristol, United Kingdom, cat. 1254). The PDCs were cultured in complete DMEM/F12 media without 9.7 microM Y-27632 dihydrochloride for at least two passages prior to the screen. The established cell line HOP-62 was cultured in RPMI 1640 medium, HEPES (Invitrogen, cat. 22400105) with 10% defined fetal bovine serum (HyClone Laboratories Inc., cat. SH30070.03) and 2 mM L-glutamine (Invitrogen, cat. 25030081). The pooled donor HUVEC were cultured in endothelial cell growth medium 2 (PromoCell, Heidelberg, Germany, cat. C-22011) and the hMSC were cultured in mesenchymal stem cell growth medium 2 (PromoCell, cat. C-28009). For all experiments, HUVEC and hMSC were used at passages </=5, while the malignant cell lines were used at passages </=15. […]

[1] = curve of first compound, second compound 0.1 µM
[2] = curve of first compound, second compound 0.316 µM
[3] = curve of first compound, second compound 1 µM
[4] = curve of first compound, second compound 3.16 µM
[5] = second compound 0.1 µM, first compound 0.0316 µM
[6] = second compound 0.1 µM, first compound 0.1 µM
[7] = second compound 0.1 µM, first compound 0.316 µM
[8] = second compound 0.1 µM, first compound 1 µM
[9] = second compound 0.316 µM, first compound 0.0316 µM
[10] = second compound 0.316 µM, first compound 0.1 µM
[11] = second compound 0.316 µM, first compound 0.316 µM
[12] = second compound 0.316 µM, first compound 1 µM
[13] = second compound 1 µM, first compound 0.0316 µM
[14] = second compound 1 µM, first compound 0.1 µM
[15] = second compound 1 µM, first compound 0.316 µM
[16] = second compound 1 µM, first compound 1 µM
[17] = second compound 3.16 µM, first compound 0.0316 µM
[18] = second compound 3.16 µM, first compound 0.1 µM
[19] = second compound 3.16 µM, first compound 0.316 µM
[20] = second compound 3.16 µM, first compound 1 µM
[21] = curve of first compound, second compound 10 µM
[22] = second compound 0.1 µM, first compound 3.16 µM
[23] = second compound 0.1 µM, first compound 10 µM
[24] = second compound 0.316 µM, first compound 3.16 µM
[25] = second compound 0.316 µM, first compound 10 µM
[26] = second compound 1 µM, first compound 3.16 µM
[27] = second compound 1 µM, first compound 10 µM
[28] = second compound 3.16 µM, first compound 3.16 µM
[29] = second compound 3.16 µM, first compound 10 µM
[30] = second compound 10 µM, first compound 0.0316 µM
[31] = second compound 10 µM, first compound 0.1 µM
[32] = second compound 10 µM, first compound 0.316 µM
[33] = second compound 10 µM, first compound 1 µM
[34] = second compound 10 µM, first compound 3.16 µM
[35] = second compound 10 µM, first compound 10 µM
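Further: spheroids exposed to agents for seven days before readout.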

SMILES	IC50 [1] [nM]	IC50 [2] [nM]	IC50 [3] [nM]	IC50 [4] [nM]	viability, T/C [5] [%]	viability, T/C [6] [%]	viability, T/C [7] [%]	viability, T/C [8] [%]	viability, T/C [9] [%]	viability, T/C [10] [%]	viability, T/C [11] [%]	viability, T/C [12] [%]	viability, T/C [13] [%]	viability, T/C [14] [%]	viability, T/C [15] [%]	viability, T/C [16] [%]	viability, T/C [17] [%]	viability, T/C [18] [%]	viability, T/C [19] [%]	viability, T/C [20] [%]	further results
CNCc1ccccc1-c1csc(C(C)Nc2nc(C)nc3cc(OC)c(OC)cc23)c1 (configuration not stated)																					viability, T/C (compound 10 µM): 0.17% [middle of 15 runs]; IC50 (compound alone, run of 07/19/2021): 112 nM [middle of 5 runs]
CCN1CCN(Cc2ccc(Nc3ncc(F)c(-c4cc(F)c5nc(C)n(C(C)C)c5c4)n3)nc2)CC1 + C=CC(=O)N1CCN(c2nc(OCC3CCCN3C)nc3c2CCN(c2cccc4cccc(C)c24)C3)CC1CC#N	< 3.16	< 3.16	< 3.16	< 3.16	18.9	20.8	18.1	23.5	19.1	20.2	21.1	21.6	20.1	18.4	19.4	20	0.49	0.73	0.52	0.18	IC50 (curve of first compound, second compound 0.0316 µM): < 3.16 nM; viability, T/C (second compound 0.0316 µM, first compound 0.00316 µM): 24.3%; viability, T/C (second compound 0.0316 µM, first compound 0.01 µM): 25.6%; viability, T/C (second compound 0.0316 µM, first compound 0.0316 µM): 23.5%; viability, T/C (second compound 0.0316 µM, first compound 0.1 µM): 25.4%; viability, T/C (second compound 0.0316 µM, first compound 0.316 µM): 26.3%; viability, T/C (second compound 0.0316 µM, first compound 1 µM): 26.9%; viability, T/C (second compound 0.1 µM, first compound 0.00316 µM): 20.9%; viability, T/C (second compound 0.1 µM, first compound 0.01 µM): 21.3%; viability, T/C (second compound 0.316 µM, first compound 0.00316 µM): 21%; viability, T/C (second compound 0.316 µM, first compound 0.01 µM): 21.2%; viability, T/C (second compound 1 µM, first compound 0.00316 µM): 21.3%; viability, T/C (second compound 1 µM, first compound 0.01 µM): 21.4%; viability, T/C (second compound 3.16 µM, first compound 0.00316 µM): 1.17%; viability, T/C (second compound 3.16 µM, first compound 0.01 µM): 1.06%
CC1OCC2(CCN(c3cnc(Sc4ccnc(N)c4Cl)c(N)n3)CC2)C1N (configuration not stated) + COc1cc2nc(C)nc(NC(C)c3cc(N)cc(C(F)(F)F)c3)c2cc1OC1CCOC1	< 31.6	< 31.6	< 31.6	< 31.6	49.4	43.1	38.4	36.1	47.2	41.4	34.1	35.7	48	43.8	35	36.2	43.6	39	35.3	33.4	IC50 [21]: < 31.6 nM; viability, T/C [22]: 39%; viability, T/C [23]: 34.5%; viability, T/C [24]: 37%; viability, T/C [25]: 39.7%; viability, T/C [26]: 32.3%; viability, T/C [27]: 29.9%; viability, T/C [28]: 29.5%; viability, T/C [29]: 26.6%; viability, T/C [30]: 30%; viability, T/C [31]: 21.2%; viability, T/C [32]: 13.1%; viability, T/C [33]: 13.3%; viability, T/C [34]: 11.6%; viability, T/C [35]: 5.88%
CCNC(=O)CC1N=C(c2ccc(Cl)cc2)c2cc(OC)ccc2-n2c(C)nnc21 (configuration not stated) + CNCc1ccccc1-c1csc(C(C)Nc2nc(C)nc3cc(OC)c(OC)cc23)c1	64.4	< 31.6	< 31.6	< 31.6	53.8	48.9	40.2	35.5	38.7	37.1	27.8	25.8	30	27.2	20.7	17.4	1.35	2.8	0.83	1.53	IC50 [21]: < 31.6 nM; viability, T/C [22]: 34.1%; viability, T/C [23]: 28.6%; viability, T/C [24]: 20.6%; viability, T/C [25]: 19.8%; viability, T/C [26]: 12.9%; viability, T/C [27]: 11%; viability, T/C [28]: 1.46%; viability, T/C [29]: 1.72%; viability, T/C [30]: 0.51%; viability, T/C [31]: 0.89%; viability, T/C [32]: 0.25%; viability, T/C [33]: 0.86%; viability, T/C [34]: 0.86%; viability, T/C [35]: 0.53%
COc1cc2nccc(Oc3ccc(NC(=O)C4(C(=O)Nc5ccc(F)cc5)CC4)cc3)c2cc1OC + COc1cc2nc(C)nc(NC(C)c3cc(N)cc(C(F)(F)F)c3)c2cc1OC1CCOC1	144	< 31.6	< 31.6	< 31.6	57.4	55.2	38.9	25.9	34.7	41.7	27.6	17.3	25.5	29.6	23.3	9.41	30.9	35.1	19.7	3.69	IC50 [21]: < 31.6 nM; viability, T/C [22]: 31.4%; viability, T/C [23]: 57.4%; viability, T/C [24]: 21.7%; viability, T/C [25]: 35.6%; viability, T/C [26]: 17.2%; viability, T/C [27]: 29.5%; viability, T/C [28]: 0.11%; viability, T/C [29]: 35.2%; viability, T/C [30]: 13.3%; viability, T/C [31]: 2.98%; viability, T/C [32]: 1.83%; viability, T/C [33]: 0.25%; viability, T/C [34]: 0.13%; viability, T/C [35]: 15.1%
